The values below come from patent US7897559B2, “Dermatological composition and kit containing avermectin compound for treating dermatological conditions” (priority 2000, dated 2011).

In one data set the test system is head lice. The conditions noted are these: after a single topical application; cited from earlier work.
Data set [1] deals with transient acantholytic dermatitis, acne miliaris necrotica, acne varioliformis, perioral dermatitis, acneiform eruptions, acne vulgaris, seborrheic dermatitis. Nature of the data set: Informal clinical trial of topical ivermectin across the dermatological conditions. It is filed as in vivo, human. From the text:
In a preferred embodiment, ivermectin is used because it is readily available commercially. The concentration of ivermectin in the dermatological composition for the purpose of the present invention can be in a broad range from about 0.05% to 8% weight by volume (w/v).
The treatment method using ivermectin dermatological composition for each of these dermatological conditions is similar. Preferably, in an initial treatment of these dermatological conditions the ivermectin dermatological composition can be applied topically from one to several times daily for a period of from about one week to several weeks, to substantially control the condition and clear the lesions. The initial dosage, including frequency of the topical application, ivermectin concentration of the dermatological composition, and the length of the initial treatment period can be determined depending on a specific disease, severity of the disease, and the response of the patient to the medication. For example, acne miliaris necrotica is more difficult to treat, and it frequently requires an initial treatment of three weeks or longer. While perioral dermatitis patients can respond to ivermectin treatment rapidly, and healing of lesions can occur in less than two weeks. After the initial treatment, a maintenance dosage, that has less frequent application, and/or a dermatological composition with less concentration of ivermectin, can be used for maintaining the condition.
(§1) Examples 4 to 12 illustrate clinical effectiveness of the method of the present invention.

The conditions of data set [2]: oral dosage of a moderate ivermectin concentration; cited from earlier work.
Data set [3] is described as follows: Safety and tolerability observed in the informal trials of topical ivermectin. It is filed as in vivo, human. The conditions noted are these: informal clinical trial, topical application, any body locations.
Excerpt: It is known that some of the diseases, such as perioral dermatitis, the skin on the eyelids can be affected. To treat eyelids, a high concentration of the medicine should be avoided to prevent irritation of the eyes.
as §1

[4] abbreviates: informal clinical trial, topical application to affected skin.

In the case of ivermectin, the “curative effect on head lice” value with head lice is on record as “absolute curative effect”. For the same substance, in data set [1] (setting [4]), the “dermal infection of the affected area” value is given as “controls dermal infection of the affected area”; the “inflammation of the affected area” value is given as “controls inflammation of the affected area”; the “itching and skin irritation caused by the conditions” value is “removes itching and skin irritation”; the lesions entry is listed as “clears up lesions”. For the same substance, in data set [1] (lotion or cream, ivermectin concentration as low as 0.075%), the clinical effectiveness entry is listed as “clinically effective”. Besides, the safety in human entry in data set [2] is on record as “safe in human, without serious adverse side effects”. In addition, the side effects entry in data set [3] is reported as “no side effects observed in any body locations”.
